Entries after “also recorded” stand apart in the source; their conditions may differ.
T1: myeloperoxidase (Homo sapiens, UniProt P05164)
T1 construct: endogenous in cells; host or cells: HL60 cells (endogenous enzyme, purified in house)
T1 sequence (P05164 49-745): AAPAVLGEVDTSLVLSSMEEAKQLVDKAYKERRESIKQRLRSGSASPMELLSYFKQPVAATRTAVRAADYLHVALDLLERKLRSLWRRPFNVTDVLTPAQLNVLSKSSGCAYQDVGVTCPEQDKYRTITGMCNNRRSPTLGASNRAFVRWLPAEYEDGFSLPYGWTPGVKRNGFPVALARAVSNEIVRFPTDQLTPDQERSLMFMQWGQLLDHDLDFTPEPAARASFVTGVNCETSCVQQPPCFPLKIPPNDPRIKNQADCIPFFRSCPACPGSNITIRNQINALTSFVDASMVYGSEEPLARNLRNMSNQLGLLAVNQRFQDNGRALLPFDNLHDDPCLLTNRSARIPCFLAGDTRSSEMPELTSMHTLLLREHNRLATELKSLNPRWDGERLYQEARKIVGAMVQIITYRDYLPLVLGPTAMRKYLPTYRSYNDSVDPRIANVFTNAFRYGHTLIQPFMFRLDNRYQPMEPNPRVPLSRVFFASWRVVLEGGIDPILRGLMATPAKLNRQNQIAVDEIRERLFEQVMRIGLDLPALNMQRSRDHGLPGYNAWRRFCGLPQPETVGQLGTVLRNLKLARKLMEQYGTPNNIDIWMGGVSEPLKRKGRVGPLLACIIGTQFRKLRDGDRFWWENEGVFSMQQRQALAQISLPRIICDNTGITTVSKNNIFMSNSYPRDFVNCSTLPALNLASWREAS

T2: eosinophil peroxidase (Sus scrofa, UniProt P80550)
T2 construct: purchased ExOxEmis (Little Rock, Ark.)
T2 sequence (P80550 143-704): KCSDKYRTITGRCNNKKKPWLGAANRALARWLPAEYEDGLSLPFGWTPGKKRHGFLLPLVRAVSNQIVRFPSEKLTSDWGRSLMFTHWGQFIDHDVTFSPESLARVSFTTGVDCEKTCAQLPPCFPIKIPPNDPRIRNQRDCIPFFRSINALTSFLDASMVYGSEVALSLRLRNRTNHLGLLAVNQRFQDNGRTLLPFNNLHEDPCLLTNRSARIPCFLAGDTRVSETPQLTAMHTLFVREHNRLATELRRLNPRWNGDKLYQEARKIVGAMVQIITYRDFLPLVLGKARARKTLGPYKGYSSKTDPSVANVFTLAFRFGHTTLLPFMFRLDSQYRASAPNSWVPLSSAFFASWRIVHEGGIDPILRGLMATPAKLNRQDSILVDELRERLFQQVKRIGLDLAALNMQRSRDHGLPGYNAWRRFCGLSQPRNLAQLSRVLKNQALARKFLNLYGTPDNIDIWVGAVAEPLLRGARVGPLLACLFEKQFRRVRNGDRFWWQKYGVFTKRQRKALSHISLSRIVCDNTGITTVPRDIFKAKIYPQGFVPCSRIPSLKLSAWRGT


Experiments:
Klebsiella pneumoniae = experiment: Bacterial killing by myeloperoxidase; assay type: cell-based
Protocol: Bacterial killing. The bactericidal activity of myeloperoxidase was quantified by conventional procedures as described previously (ref. 27). Briefly, Klebsiella pneumoniae were cultured in Luria-Bertani broth to mid-log growth phase, washed with PBS, and used at 10^9 bacteria/mL. Bacteria were incubated with 5 nM enzyme, 5 nM H2O2, and 100 mM NaCl in PBS (pH 5.5) for 15 min at 37° C. Serial dilutions were immediately spread on agar plates and the colony forming units determined after overnight incubation at 37° C.

myeloperoxidase = molecular target: T1, myeloperoxidase; experiment: Generation of N-acetyl-L-3-bromotyrosine by the myeloperoxidase-H2O2-Cl^−-Br^− system (reverse-phase HPLC); assay type: biochemical; settings: for effect on bromination of N-acetyl-L-tyrosine by myeloperoxidase: acidic (pH 5.9) and neutral conditions; for effect on bromination by the myeloperoxidase-H2O2-Cl^−-Br^− system: mildly acidic conditions (pH 5.9)
Protocol: (§1) General procedures. Myeloperoxidase was purified from HL60 cells (ref. 19). Enzyme was apparently pure as assessed by its absorption spectrum (A430/A280 ratio>0.8), SDS-PAGE, and peroxidase activity gel electrophoresis (ref. 20). Porcine eosinophil peroxidase (A415/A280>0.9) was from ExOxEmis (Little Rock, Ark.). Chloride-free NaOCl and HOBr were prepared by conventional procedures as described previously (refs. 21,22). Peritoneal white blood cells were elicited with intraperitoneal (i.p.) injection of 4% thioglycollate and harvested 24 h after injection (ref. 23). SDS-PAGE was performed using 10% Bis-Tris NuPAGE gels (Invitrogen; Carlsbad, Calif.). The separated proteins were transferred onto a nitrocellulose membrane, which was blocked overnight at 4° C. with 5% milk and 0.05% Tween-20 in phosphate-buffered saline (PBS; 10 mM phosphate, 138 mM NaCl, 2.7 mM KCl, pH 7.4). The blot was then incubated (1 h) with rabbit anti-mouse myeloperoxidase antibody (1:1,000) followed by goat anti-rabbit immunoglobulin antibody (1:10,000; Santa Cruz Biotechnology; Santa Cruz, Calif.) conjugated with horseradish peroxidase. West Pico chemiluminescent substrate (Pierce; Rockford, Ill.) was added, and the membrane was exposed to autoradiography film and developed.
Reaction conditions. Reactions were carried out for 60 min at 37° C. in buffer A (100 mM NaCl, 50 mM sodium phosphate, 100 μM diethylenetriaminepentaacetic acid (DTPA)) supplemented with 1 mM N-acetyl-L-tyrosine and either 50 μM hypohalous acid or 3 nM peroxidase and 50 μM H2O2. Buffer A was passed over a Chelex resin column prior to use to remove redox active transition metal ions. Reactions were initiated by the addition of oxidant and terminated with 0.1 mM methionine.
(§2) Reverse-phase HPLC analyses of halogenated amino acids. Analyses were performed using a flow rate of 1 mL/min and an Ultrasphere ODS reverse-phase column (4.6 mm×25 cm; 5 μm; Beckman Instruments; Berkeley, Calif.) coupled to a Waters 484 Tunable Absorbance Detector with monitoring at 275 nm. Solvent A was 0.1% trifluoroacetic acid (TFA, pH 2.5), and solvent B was 0.1% TFA in methanol (pH 2.5). The gradient profile was: isocratic elution at 66:34 (v/v) A:B over 2.1 min; linear increase of B from 34% to 40% over 30 min; isocratic elution at 60:40 A:B for 3 min; increase of B from 40% to 100% over 2 min; and isocratic elution at 100% B for 3 min. Products were quantified using integrated peak areas by comparison to standard curves of authentic N-Ac-chlorotyrosine and N-Ac-bromotyrosine.

eosinophil peroxidase = molecular target: T2, eosinophil peroxidase; experiment: Generation of N-acetyl-L-3-bromotyrosine by the eosinophil peroxidase-H2O2-Cl^−-Br^− system (reverse-phase HPLC); assay type: biochemical, Porcine
Protocol: as §1, with “The blot was then incubated (1 h) with rabbit anti-mouse myeloperoxidase antibody (1:1,000) followed by goat anti-rabbit immunoglobulin antibody (1:10,000; Santa Cruz Biotechnology; Santa Cruz, Calif.) conjugated with horseradish peroxidase. West Pico chemiluminescent substrate (Pierce; Rockford, Ill.) was added, and the membrane was exposed to autoradiography film and developed.” left out
Reverse-phase HPLC analyses of halogenated amino acids. Analyses were performed using a flow rate of 1 mL/min and an Ultrasphere ODS reverse-phase column (4.6 mm×25 cm; 5 μm; Beckman Instruments; Berkeley, Calif.) coupled to a Waters 484 Tunable Absorbance Detector with monitoring at 275 nm. […] Products were quantified using integrated peak areas by comparison to standard curves of authentic N-Ac-chlorotyrosine and N-Ac-bromotyrosine.

[1] = Generation of N-acetyl-L-3-bromotyrosine by the HOCl-Cl^−-Br^− system (reverse-phase HPLC)
Protocol: as §2, with “Reaction conditions. Reactions were carried out for 60 min at 37° C. in buffer A (100 mM NaCl, 50 mM sodium phosphate, 100 μM diethylenetriaminepentaacetic acid (DTPA)) supplemented with 1 mM N-acetyl-L-tyrosine and either 50 μM hypohalous acid or 3 nM peroxidase and 50 μM H2O2. Buffer A was passed over a Chelex resin column prior to use to remove redox active transition metal ions. Reactions were initiated by the addition of oxidant and terminated with 0.1 mM methionine. Reverse-phase” for “Reverse-phase”

[2] = neutral conditions (pH 7), taurine 200 μM
[3] = mildly acidic conditions (pH 5.9)

Row | effect on bromination of N-acetyl-L-tyrosine by myeloperoxidase (myeloperoxidase) | effect on bromination by the myeloperoxidase-H2O2-Cl^−-Br^− system (myeloperoxidase) | effect on bromination by the myeloperoxidase-H2O2-Cl^−-Br^− system (myeloperoxidase; listed as Taurine) | effect on production of N-acetyl-L-3-bromotyrosine by the eosinophil peroxidase-H2O2-Cl^−-Br^− system (eosinophil peroxidase; [3]) | effect on N-acetyl-L-3-bromotyrosine formation by the eosinophil peroxidase-H2O2-Cl^−-Br^− system (eosinophil peroxidase; [2]) | Molecule | bacteria killing (dead) (Klebsiella pneumoniae; 1 μM Br added to the complete myeloperoxidase-H2O2-Cl^− system) [%] | effect on bacteria killing (Klebsiella pneumoniae; 10 μM Br^− added to the complete myeloperoxidase-H2O2-Cl^− system) | effect on N-acetyl-L-3-bromotyrosine formation by the myeloperoxidase-H2O2-Cl^−-Br^− system (myeloperoxidase; [2]) | effect on formation of N-acetyl-L-3-bromotyrosine by the HOCl-Cl^−-Br^− system [1, 3] | effect on formation of N-acetyl-L-3-bromotyrosine by the HOCl-Cl^−-Br^− system [1, 2]
1 | – | – | – | – | – | Br [Br^−, bromide] | 72 | completely inhibitory | – | – | –
2 | inhibited | almost completely inhibited | inhibited | failed to affect | little affect | NCCS(=O)(=O)O [taurine] | – | – | only partially inhibited; also recorded: only partly inhibited | inhibited | completely inhibited
3 | inhibited | – | – | – | – | catalase: a peroxide scavenger (protein, UniProt P04040 2-527, looked up) Catalase: ADSRDPASDQMQHWKEQRAAQKADVLTTGAGNPVGDKLNVITVGPRGPLLVQDVVFTDEMAHFDRERIPERVVHAKGAGAFGYFEVTHDITKYSKAKVFEHIGKKTPIAVRFSTVAGESGSADTVRDPRGFAVKFYTEDGNWDLVGNNTPIFFIRDPILFPSFIHSQKRNPQTHLKDPDMVWDFWSLRPESLHQVSFLFSDRGIPDGHRHMNGYGSHTFKLVNANGEAVYCKFHYKTDQGIKNLSVEDAARLSQEDPDYGIRDLFNAIATGKYPSWTFYIQVMTFNQAETFPFNPFDLTKVWPHKDYPLIPVGKLVLNRNPVNYFAEVEQIAFDPSNMPPGIEASPDKMLQGRLFAYPDTHRHRLGPNYLHIPVNCPYRARVANYQRDGPMCMQDNQGGAPNYYPNSFGAPEQQPSALEHSIQYSGEVRRFNTANDDNVTQVRAFYVNVLNEEQRKRLCENIAGHLKDAQIFIQKKAVKNFTEVHPDYGSHIQALLDKYNAEKPKNAIHTFVQSGSHLAAREKANL | – | – | – | – | –
